Reference: ChEMBL document CHEMBL2321746, “Cloning, characterization, and sulfonamide and thiol inhibition studies of an α-carbonic anhydrase from Trypanosoma cruzi, the causative agent of Chagas disease” (J Med Chem, 2013)

Key:
Type in all cases: functional
Trypanosoma cruzi [1] = experiment: Antitrypanosomal activity against Trypanosoma cruzi DM28 epimastigotes at 256 uM incubated for 48 hrs by resazurin dye reduction based ELISA method; settings: DM28, 48 h
Trypanosoma cruzi [2] = experiment: Antitrypanosomal activity against Trypanosoma cruzi Y epimastigotes at 256 uM incubated for 48 hrs by resazurin dye reduction based ELISA method
Trypanosoma cruzi [3] = experiment: Antitrypanosomal activity against Trypanosoma cruzi Y epimastigotes at 64 uM incubated for 48 hrs by resazurin dye reduction based ELISA method
Trypanosoma cruzi [4] = experiment: Antitrypanosomal activity against Trypanosoma cruzi Y epimastigotes at 128 uM incubated for 48 hrs by resazurin dye reduction based ELISA method
Trypanosoma cruzi [5] = experiment: Antitrypanosomal activity against Trypanosoma cruzi DM28 epimastigotes at 128 uM incubated for 48 hrs by resazurin dye reduction based ELISA method; settings: DM28, 48 h
Trypanosoma cruzi [6] = experiment: Antitrypanosomal activity against Trypanosoma cruzi Y epimastigotes at 32 uM incubated for 48 hrs by resazurin dye reduction based ELISA method
Trypanosoma cruzi [7] = experiment: Antitrypanosomal activity against Trypanosoma cruzi Y epimastigotes at 16 uM incubated for 48 hrs by resazurin dye reduction based ELISA method
Trypanosoma cruzi [8] = experiment: Antitrypanosomal activity against Trypanosoma cruzi Y epimastigotes at 8 uM incubated for 48 hrs by resazurin dye reduction based ELISA method

Compound | inhibition at 256 µM (Trypanosoma cruzi [1]) [%] | inhibition at 256 µM (Trypanosoma cruzi [2]) [%] | inhibition at 64 µM (Trypanosoma cruzi [3]) [%] | inhibition at 128 µM (Trypanosoma cruzi [4]) [%] | inhibition at 128 µM (Trypanosoma cruzi [5]) [%] | inhibition at 32 µM (Trypanosoma cruzi [6]) [%] | inhibition at 16 µM (Trypanosoma cruzi [7]) [%] | inhibition at 8 µM (Trypanosoma cruzi [8]) [%]
O=C(N/N=C\c1cccc(Br)c1)Nc1nnc(S)s1 | 34 | 58 | – | – | – | – | – | –
C/C(=N/NC(=O)Nc1nnc(S)s1)c1ccc(Cl)cc1 | 0 | 32 | – | – | – | – | – | –
C/C(CC(C)C)=N/NC(=O)Nc1nnc(S)s1 | 20 | 43 | – | – | – | – | – | –
O=C(N/N=C\c1ccccc1)Nc1nnc(S)s1 | 87 | 87 | 64 | 84 | 43 | – | – | –
O=C(N/N=C\c1ccc(Cl)cc1)Nc1nnc(S)s1 | 10 | 67 | – | 51 | – | – | – | –
COc1cccc(/C=N\NC(=O)Nc2nnc(S)s2)c1 | 43 | 77 | – | 44 | – | – | – | –
O=C(N/N=C1\C(=O)Nc2ccc(Br)cc21)Nc1n[nH]c(=S)s1 | 22 | 20 | – | – | – | – | – | –
O=C(N/N=C1\C(=O)Nc2ccccc21)Nc1n[nH]c(=S)s1 | 9 | 30 | – | – | – | – | – | –
O=C(Cn1ccnc1[N+](=O)[O-])NCc1ccccc1 [BENZNIDAZOLE] | – | 91 | 75 | 80 | – | 60 | 66 | 51
